# Measurements as given in patent publication US20100034746A1, “ANIMAL MODEL, SYSTEM, AND METHOD FOR SCREENING COMPOUNDS FOR ANTI[…]/OR TH[…]” (Piramal Life Sciences Limited, priority 2007, published 2010).
# Assays:
# thrombus formation [1] = test: Cross-circulation thrombosis model, cannulae connected with damaged rat thoracic aorta; survival time of recipient after blocking trachea; format: in vivo, Wistar rats
# Description: In the present experiment, the piece of latex tubing used in Example 1 was replaced by a piece of rat thoracic aorta with damaged endothelium, so that the anti-thrombotic effect of the compounds could be studied in a near natural situation.
# Maintenance of a patent vasculature is critical to provide blood flow to dependent tissues. […] Following vessel injury, active hemostasis results from vasoconstriction, adherence of activated platelets to damaged endothelium, their aggregation and activation of coagulation enzymes, finally resulting into thrombosis. It has been shown that chronic carbon tetrachloride treatment to rats causes serious damage to vascular endothelial cells and thus the blood vessels get damaged. It was thought of using these damaged vessels, instead of latex tubing (used in Example 1), to connect arterial and venous cannulae of donor and recipient, in order to mimic the physiological process of thrombus formation.
# They were administered carbon tetrachloride (Fluka) in olive oil (Figaro, Spain) (1:1 v/v), 0.5 ml/kg, intraperitoneally, twice a week for eight continuous weeks. […]
# In spite of the blocked trachea, the recipient survived, as long as the oxygenated blood supply from the donor continued. Survival was monitored by the animal's effort to respire. […]
# (§1) The survival time of the recipients in the abovementioned experiments was recorded.
# thrombus formation [2] = test: Cross-circulation thrombosis model, cannulae connected with latex tubing; survival time of recipient after blocking trachea; format: in vivo, Wistar rats; conditions: cannula with latex tubing; for Survival time of the recipients, result in words: compared with vehicle/saline treated control animals; for Survival time (min) Mean ± S.E.: recipient rat
# Description: Wistar rats (either sex; weighing 290-310 g) were used throughout the experiments. Animals were housed and cared for in accordance with the Guidelines in force published by CPCSEA (Committee for the Purpose of Control and Supervision of Experiments on Animals), Tamil Nadu, India. Procedures using laboratory animals were approved by the IAEC (Institutional Animal Ethics Committee) of the Research Centre of Nicholas Piramal India Limited, Mumbai, India.
# In one experiment a pair of rats were anesthetized using urethane (1.5 g/kg; Fluka) by intra-peritoneal administration. After anesthetization, one of the jugular veins and carotid arteries of each of the rats were exposed and clamped. Polyethylene cannulae (0.76 mm ID and 1.22 mm OD, polyethylene tubing, each 6.0 cm in length; Portex Ltd) filled with normal saline (0.9%, w/v, sodium chloride, Merck) were introduced into these vessels and secured tightly by tying with cotton thread (No. 40, Madura Coats Ltd., India). Furthermore, trachea of any one of the rats was exposed and a piece of thread was put loosely around it (recipient). Then the arterial cannula of one of the rats was connected to the venous cannula of the other rat and vice versa, using 2.5 cm long piece of latex tubing (0.89 mm ID; PharMed, Cole-Parmer). FIG. 1 schematically illustrates these rats.
# The experiment was initiated by opening the clamps on all the vessels, which initiated cross circulation of blood between the two animals. […] FIG. 2 schematically illustrates these rats.
# Survival was monitored by the animal's effort to respire.
# In another experiment, pairs of rats were treated with antithrombotic/thrombolytic agents selected from the following list:
# The drug suspensions for oral use were prepared in the vehicle, carboxymethyl cellulose (CMC, 0.5% w/v, Sigma), using polyoxyethylenesorbitan monooleate (Tween 80, Sigma) as a wetting agent. Commercially available streptokinase solution was diluted with normal saline to an appropriate concentration for the i.v. use.
# Vehicle/drugs were administered to rats orally at the doses mentioned above, in a volume of 1 ml/kg. With the exception of streptokinase, all other drugs were administered once daily for three consecutive days and the experiment was performed on the third day, one hour after the administration of the last dose. The vehicle-treated animals were used as controls.
# Streptokinase was administered as a continuous infusion at a dose of 60,000 I.U./ml/kg/hour intravenously, through the femoral vein of the recipient and was administered only on the day of experiment. As a source of plasminogen, human plasma was injected to the animal intravenously at a dose of 1 ml/kg, just before blocking the trachea. Streptokinase infusion was initiated two minutes after blocking the trachea of the recipient. Saline-infused animals were used as control for streptokinase-treated animals.
# as §1
# [3] = 20 mg/kg p.o. once daily for three days, 1 h after last dose, CMC control 10.9 ± 0.70
Molecule,"Survival time of the recipients, result in words (thrombus formation [2])",Survival time (min) Mean ± S.E. (thrombus formation [2]; [3]),further results
"CC(=O)Oc1ccccc1C(=O)O [Aspirin, acetylsalicylic acid]",Significant increase in the survival time,,"Survival time of the recipient, result in words (thrombus formation [1]; cannula with damaged blood vessel, compared with appropriate control animals): Significant increase in the survival time; Survival time (min) Mean ± S.E. (thrombus formation [1]; recipient rat, cannula with damaged thoracic aorta, 20 mg/kg p.o. once daily for three days, CMC control 5.18 ± 0.99): 33.9 ± 4.58 min; Survival time (min) Mean ± S.E. (thrombus formation [2]; 20 mg/kg p.o. once daily for three days, 1 h after last dose, CMC control 10.9 ± 0.70, 20 mg/kg): 45.3 ± 4.40 min"
"COC(=O)[C@H](c1ccccc1Cl)N1CCc2sccc2C1 [Clopidogrel, Clopidogrel bisulphate]",,47.8 ± 3.78 min,
OCCN(CCO)c1nc(N2CCCCC2)c2nc(N(CCO)CCO)nc(N3CCCCC3)c2n1 [Dipyridamole],,38.5 ± 1.55 min,
Streptokinase,significant prolongation of the survival time,,"Survival time (min) Mean ± S.E. (thrombus formation [2]; 60,000 IU/ml/kg/hr i.v. continuous infusion, human plasma 1 ml/kg i.v., saline control 10.4 ± 0.91): 89.5 ± 10.55 min"
